Results reported in patent publication US9150592B2, “Heterocyclic nuclear hormone receptor modulators” (AbbVie Inc., priority 2012, dated 2015).

Columns and labels:
[1] = target: T1, Glucocorticoid Receptor (GR) (Homo sapiens, UniProt P04150); assay: GR Fluorescence Polarization Assay (PolarScreen Glucocorticoid Receptor Competitor Assay, Red); conditions: IC50 class ranges, read-out: GR binding
T1 construct: purchased Invitrogen P2893
T1 sequence (P04150 1-777): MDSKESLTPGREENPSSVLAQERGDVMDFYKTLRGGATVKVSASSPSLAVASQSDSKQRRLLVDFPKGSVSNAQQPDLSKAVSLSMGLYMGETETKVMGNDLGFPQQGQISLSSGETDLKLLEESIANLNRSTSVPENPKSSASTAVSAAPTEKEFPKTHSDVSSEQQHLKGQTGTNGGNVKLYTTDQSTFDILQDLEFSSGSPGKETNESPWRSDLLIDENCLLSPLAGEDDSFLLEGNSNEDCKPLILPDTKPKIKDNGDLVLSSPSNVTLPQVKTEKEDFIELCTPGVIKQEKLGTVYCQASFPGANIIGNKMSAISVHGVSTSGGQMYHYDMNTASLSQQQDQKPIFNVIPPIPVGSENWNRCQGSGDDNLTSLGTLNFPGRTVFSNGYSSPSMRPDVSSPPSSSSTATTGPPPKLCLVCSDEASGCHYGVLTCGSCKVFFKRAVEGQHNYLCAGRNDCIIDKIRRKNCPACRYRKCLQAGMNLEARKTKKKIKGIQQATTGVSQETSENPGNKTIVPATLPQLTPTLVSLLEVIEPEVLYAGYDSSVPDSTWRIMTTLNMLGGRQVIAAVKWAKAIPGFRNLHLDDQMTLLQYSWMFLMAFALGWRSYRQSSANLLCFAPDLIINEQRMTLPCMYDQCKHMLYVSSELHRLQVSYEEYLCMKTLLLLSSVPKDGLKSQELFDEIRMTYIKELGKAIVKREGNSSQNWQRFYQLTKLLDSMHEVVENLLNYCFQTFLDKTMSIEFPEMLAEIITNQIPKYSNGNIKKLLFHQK
In short: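 Competitive fluorescence-polarization assay using a red fluorescent glucocorticoid tracer with human GR in kit buffer. Compounds serially diluted 1:4 in DMSO, incubated with tracer and GR overnight at 4° C, then polarization read.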

[2] = tested on: IL-6 in A549 cells stimulated with IL-1β; assay: A549 Cell Assay to Measure Inflammation Markers (inhibition of IL-1β-induced IL-6); type: cell-based; conditions: Homo sapiens, A549, A549 Cell Assay to Measure Inflammation Markers; intrinsic activity, Emax class ranges
In short: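 Compound pre-incubated with A549 cells 1 h at 37 °C, then stimulated with IL-1β (1 ng/mL final, 0.1% DMSO). Supernatant IL-6 quantified by MSD immunoassay after a further incubation. IC50 and Emax derived.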

| SMILES | IC50 [1] | Emax [2] |
| --- | --- | --- |
| Cc1cc(C#N)ccc1[C@@H]1S[C@@H](C)CNc2c1c(C)nn2C [G.2] | 100 to 1000 nM | < 50% |
| Cc1ccc(C#N)cc1C1SC(C)(C)CNc2c1c(C1CC1)nn2C (stereo not drawn) [G.5] | 100 to 1000 nM | < 50% |
| Cc1cc(C#N)ccc1C1SC(C)(C)CNc2c1c(C)nn2C (stereo not drawn) [G.6] | 100 to 1000 nM | < 50% |
| Cc1cc(C#N)ccc1C1SCC(C)Nc2c1c(-c1ccccn1)nn2C (stereo not drawn) [G.7] | < 100 nM | > 70% |
| Cc1cc(C#N)ccc1C1SCCNc2c1c(-c1ccccn1)nn2C (stereo not drawn) [G.8, 3-methyl-4-(1-methyl-3-(pyridin-2-yl)-4,6,7,8-tetrahydro-1H-pyrazolo[3,4-e][1,4]thiazepin-4-yl)benzonitrile] | < 100 nM | > 60% |
| Cc1cc(C#N)ccc1C1SCCNc2onc(-c3ccccn3)c21 (stereo not drawn) [G.9] | < 100 nM | < 50% |
| CCn1nc(-c2ccccn2)c2c1NCCSC2c1ccc(C#N)cc1C (stereo not drawn) [G.10, 3-methyl-4-(1-ethyl-3-(pyridin-2-yl)-4,6,7,8-tetrahydro-1H-pyrazolo[3,4-e][1,4]thiazepin-4-yl)benzonitrile] | < 100 nM | > 70% |
| Cc1cc(C(=O)Nc2cccnc2)ccc1C1SC(C)(C)CNc2c1c(C)nn2C (stereo not drawn) [H.1, 3-methyl-N-(3-pyridyl)-4-(1,3,6,6-tetramethyl-7,8-dihydro-4H-pyrazolo[3,4-e][1,4]thiazepin-4-yl)benzamide] | 1000 to 10000 nM | < 50% |
| Cn1nc(-c2ccccn2)c2c1NCCSC2c1ccc(C(=O)Nc2cccnc2)cc1Cl (stereo not drawn) [H.3] | 100 to 1000 nM | < 50% |
| CCn1nc(-c2ccccn2)c2c1NCCSC2c1ccc(C(=O)Nc2cccnc2C)cc1C (stereo not drawn) [H.4] | < 100 nM | > 70% |
| Cc1cc(C(=O)Nc2cccnc2C)ccc1C1SC(C)(C)CNc2c1c(C)nn2C (stereo not drawn) [H.5] | 1000 to 10000 nM | < 50% |
| Cc1cc(C(=O)Nc2cccnc2C)ccc1C1SCC(C)Nc2c1c(-c1ccccn1)nn2C (stereo not drawn) [H.6] | < 100 nM | > 70% |
| Cn1nc(-c2ccccn2)c2c1NCCSC2c1ccc(C(N)=O)cc1Cl (stereo not drawn) [I.1, 3-chloro-4-[1-methyl-3-(2-pyridyl)-4,6,7,8-tetrahydropyrazolo[3,4-e][1,4]thiazepin-4-yl]benzamide] | 100 to 1000 nM | < 50% |
| Cc1cc(C(N)=O)ccc1C1SC(C)(C)CNc2c1c(C)nn2C (stereo not drawn) [I.4] | 1000 to 10000 nM | < 50% |
| Cc1cc(Cl)ccc1C1SCC(C(C)C)Nc2c1c(-c1ccccn1)nn2C (stereo not drawn) [K.3] | < 100 nM | < 50% |
| CC1CSC(c2ccc(Br)cc2C(F)(F)F)c2c(-c3ccccn3)nn(C)c2N1 (stereo not drawn) [K.11] | < 100 nM | < 50% |
| Cc1nn(C)c2c1C(c1ccc(Cl)cc1Cl)[S+]([O-])C(C)(C)CN2 (stereo not drawn) [L.1, 4-(2,4-dichlorophenyl)-1,3,6,6-tetramethyl-7,8-dihydro-4H-pyrazolo[3,4-e][1,4]thiazepine 5-oxide] | > 10000 nM | < 50% |
| Cn1nc(-c2ccccn2)c2c1NCC[S+]([O-])C2c1ccc(Cl)cc1Cl (stereo not drawn) [L.2] | 1000 to 10000 nM | < 50% |
| Cn1nc(-c2ccccn2)c2c1NCCS(=O)(=O)C2c1ccc(Cl)cc1Cl (stereo not drawn) [L.3] | 100 to 1000 nM | < 50% |
| Cc1nn(C)c2c1C(c1ccc(Cl)cc1Cl)S(=O)(=O)C(C)(C)CN2 (stereo not drawn) [L.4] | 1000 to 10000 nM | < 50% |
| CCn1nc(-c2ccccn2)c2c1NC(=O)CCC2c1ccc(C(=O)Nc2cccnc2C)cc1C (stereo not drawn) [O.2] | 100 to 1000 nM | > 70% |
| CCn1nc(-c2ccccn2)c2c1NCCSC2c1ccc(C(=O)Nc2cc(C)no2)cc1C (stereo not drawn) [R.1, 4-(1-ethyl-3-(pyridin-2-yl)-4,6,7,8-tetrahydro-1H-pyrazolo[3,4-e][1,4]thiazepin-4-yl)-3-methyl-N-(3-methylisoxazol-5-yl)benzamide] | < 100 nM | < 50% |
| CCn1nc(-c2ccccn2)c2c1NCCSC2c1ccc(C(=O)Nc2ccnn2C)cc1C (stereo not drawn) [S.1, 4-(1-ethyl-3-(pyridin-2-yl)-4,6,7,8-tetrahydro-1H-pyrazolo[3,4-e][1,4]thiazepin-4-yl)-3-methyl-N-(1-methyl-1H-pyrazol-5-yl)benzamide] | < 100 nM | > 70% |
| CCn1nc(-c2ccccn2)c2c1NCCSC2c1ccc(C(=O)Nc2cc(C)nn2C)cc1C (stereo not drawn) [S.2] | < 100 nM | > 70% |
| CCn1nc(-c2ccccn2)c2c1NCCSC2c1ccc(C(=O)Nc2nncs2)cc1C (stereo not drawn) [S.3] | < 100 nM | < 50% |
| CCn1nc(-c2ccccn2)c2c1NCCSC2c1ccc(C(=O)Nc2nnc(C)s2)cc1C (stereo not drawn) [S.4] | < 100 nM | < 50% |
| CCn1nc(-c2ccccn2)c2c1NCCSC2c1ccc(C(=O)Nc2nnc[nH]2)cc1C (stereo not drawn) [S.5] | < 100 nM | > 70% |
| CCn1nc(-c2ccccn2)c2c1NCCSC2c1ccc(C(=O)Nc2n[nH]cc2C#N)cc1C (stereo not drawn) [S.8] | < 100 nM | > 50% |
| CCn1nc(-c2ccccn2)c2c1NCCSC2c1ccc(C(=O)Nc2n[nH]c(C)c2C#N)cc1C (stereo not drawn) [S.9] | < 100 nM | < 50% |
| CCn1nc(-c2ccccn2)c2c1NCCSC2c1ccc(C(=O)Nc2cccnc2Cl)cc1C (stereo not drawn) [S.10] | < 100 nM | > 70% |
